Data taken from patent publication US12594276B2, “Inhibitors of human immunodeficiency virus replication” (ViiV Healthcare UK (No.5) Limited, priority 2024, dated 2026).

Tests used:
[1] = Compound cytotoxicity, XTT-based colorimetric assay; type: cell-based; details: human; uninfected MT2 cells, day 4, XTT; read-out: CC50
Procedure, shortened: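 Cells seeded as for the antiviral assay but left uninfected (MT2). Compound exposure continued to day 4. XTT reagent added and colour read. CC50 calculated.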

[2] = tested on: recombinant NL4-3 virus (nef section replaced with Renilla luciferase gene) in MT-2 cells; assay: HIV cell culture assay (antiviral activity, luciferase readout); type: cell-based; details: Renilla, NL43, MT-2 cells infected for 4-5 days with recombinant NL4-3 Renilla luciferase virus
Procedure, shortened: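 The reporter virus was produced by transfecting 293T cells with the NL4-3 nef/Renilla luciferase proviral clone. MT-2 cells were infected for 4–5 days with serial compound dilutions present. Luciferase was read with a live-cell substrate, and EC50 came from the exponential median-effect equation.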

| Compound | CC50 at 4 days [1] | EC50 [2] |
| --- | --- | --- |
| COCCCn1nc(NS(C)(=O)=O)c2c(Cl)ccc(-n3c([C@H](Cc4cc(F)cc(F)c4)NC(=O)Cn4nc(C(F)F)c5c4C(F)(F)[C@@H]4C[C@H]54)nc4nc(C5CCC(F)(F)CC5)cc(CN5C[C@H](F)C[C@H](F)C5)c4c3=O)c21 (atropisomer, axis not shown; (P)) [Example 488, N-[(1S)-1-[(3P)-3-[4-chloro-3-methanesulfonamido-1-(3-methoxypropyl)-1H-indazol-7-yl]-7-(4,4-difluorocyclohexyl)-5-{[(3R,5S)-3,5-difluoropiperidin-1-yl]methyl}-4-oxo-3H,4H-pyrido[2,3-d]pyrimidin-2-yl]-2-(3,5-difluorophenyl)ethyl]-2-[(2S,4R)-9-(difluoromethyl)-5,5-difluoro-7,8-diazatricyclo[4.3.0.0^2,^4]nona-1(6),8-dien-7-yl]acetamide] | > 20 nM | 0.009 nM |
| COCCCn1nc(NS(C)(=O)=O)c2c(Cl)ccc(-n3c([C@H](Cc4cc(F)cc(F)c4)NC(=O)Cn4nc(C(F)F)c5c4C(F)(F)[C@@H]4C[C@H]54)nc4nc(C5CCC(F)(F)CC5)cc(CN5CCC(F)(F)CC5)c4c3=O)c21 (atropisomer, axis not shown; (P)) [Example 489, N-[(1S)-1-[(3P)-3-[4-chloro-3-methanesulfonamido-1-(3-methoxypropyl)-1H-indazol-7-yl]-7-(4,4-difluorocyclohexyl)-5-[(4,4-difluoropiperidin-1-yl)methyl]-4-oxo-3H,4H-pyrido[2,3-d]pyrimidin-2-yl]-2-(3,5-difluorophenyl)ethyl]-2-[(2S,4R)-9-(difluoromethyl)-5,5-difluoro-7,8-diazatricyclo[4.3.0.0^2,4]nona-1(6),8-dien-7-yl]acetamide] | > 20 nM | 0.018 nM |
| CS(=O)(=O)Nc1nn(CCN2C[C@H](F)C[C@H](F)C2)c2c(-n3c([C@H](Cc4cc(F)cc(F)c4)NC(=O)Cn4nc(C(F)F)c5c4C(F)(F)[C@@H]4C[C@H]54)nc4nc(C5CCC(F)(F)CC5)cc(NCCN5CCOCC5)c4c3=O)ccc(Cl)c12 (atropisomer, axis not shown; (P)) [Example 491, N-[(1S)-1-[(3P)-3-(4-chloro-1-{2-[(3R,5S)-3,5-difluoropiperidin-1-yl]ethyl}-3-methanesulfonamido-1H-indazol-7-yl)-7-(4,4-difluorocyclohexyl)-5-{[2-(morpholin-4-yl)ethyl]amino}-4-oxo-3H,4H-pyrido[2,3-d]pyrimidin-2-yl]-2-(3,5-difluorophenyl)ethyl]-2-[(2S,4R)-9-(difluoromethyl)-5,5-difluoro-7,8-diazatricyclo[4.3.0.0^2,^4]nona-1(6),8-dien-7-yl]acetamide] | > 20 nM | 0.009 nM |
| COCCCn1nc(NS(C)(=O)=O)c2c(Cl)ccc(-n3c([C@H](Cc4cc(F)cc(F)c4)NC(=O)Cn4nc(C(F)F)c5c4C(F)(F)[C@@H]4C[C@H]54)nc4nc(C5CCC(F)(F)CC5)cc(NCCN5CCC(F)(F)CC5)c4c3=O)c21 (atropisomer, axis not shown; (P)) [Example 498, N-[(1S)-1-[(3P)-3-[4-chloro-3-methanesulfonamido-1-(3-methoxypropyl)-1H-indazol-7-yl]-7-(4,4-difluorocyclohexyl)-5-{[2-(4,4-difluoropiperidin-1-yl)ethyl]amino}-4-oxo-3H,4H-pyrido[2,3-d]pyrimidin-2-yl]-2-(3,5-difluorophenyl)ethyl]-2-[(2S,4R)-9-(difluoromethyl)-5,5-difluoro-7,8-diazatricyclo[4.3.0.0^2,^4]nona-1(6),8-dien-7-yl]acetamide] | > 20 nM | 0.018 nM |
| COCCCn1nc(NS(C)(=O)=O)c2c(Cl)ccc(-n3c([C@H](Cc4cc(F)cc(F)c4)NC(=O)Cn4nc(C(F)F)c5c4C(F)(F)[C@@H]4C[C@H]54)nc4nc(C5CCC(F)(F)CC5)cc(NCCN5CCC5)c4c3=O)c21 (atropisomer, axis not shown; (P)) [Example 500, N-[(1S)-1-[(3P)-5-{[2-(azetidin-1-yl)ethyl]amino}-3-[4-chloro-3-methanesulfonamido-1-(3-methoxypropyl)-1H-indazol-7-yl]-7-(4,4-difluorocyclohexyl)-4-oxo-3H,4H-pyrido[2,3-d]pyrimidin-2-yl]-2-(3,5-difluorophenyl)ethyl]-2-[(2S,4R)-9-(difluoromethyl)-5,5-difluoro-7,8-diazatricyclo[4.3.0.0^2,^4]nona-1(6),8-dien-7-yl]acetamide] | > 20 nM | 0.049 nM |
| Cc1cc(C2(F)CCC(F)(F)CC2)nc2nc([C@H](Cc3cc(F)cc(F)c3)NC(=O)Cn3nc(C(F)F)c4c3C(F)(F)[C@@H]3C[C@H]43)n(-c3ccc(Cl)c4c(NS(C)(=O)=O)nn(CCN5CC(C)(C)OC(C)(C)C5)c34)c(=O)c12 (atropisomer, axis not shown; (P)) [Example 501, N-[(1S)-1-[(3P)-3-{4-chloro-3-methanesulfonamido-1-[2-(2,2,6,6-tetramethylmorpholin-4-yl)ethyl]-1H-indazol-7-yl}-5-methyl-4-oxo-7-(1,4,4-trifluorocyclohexyl)-3H,4H-pyrido[2,3-d]pyrimidin-2-yl]-2-(3,5-difluorophenyl)ethyl]-2-[(2S,4R)-9-(difluoromethyl)-5,5-difluoro-7,8-diazatricyclo[4.3.0.0^2,^4]nona-1(6),8-dien-7-yl]acetamide] | > 20 nM | 0.016 nM |
| Cc1cc(C2(F)CCC(F)(F)CC2)nc2nc([C@H](Cc3cc(F)cc(F)c3)NC(=O)Cn3nc(C(F)F)c4c3C(F)(F)[C@@H]3C[C@H]43)n(-c3ccc(Cl)c4c(NS(C)(=O)=O)nn(CCN5C[C@@H](C)O[C@@H](C)C5)c34)c(=O)c12 (atropisomer, axis not shown; (P)) [Example 502, N-[(1S)-1-[(3P)-3-(4-chloro-1-{2-[(2R,6S)-2,6-dimethylmorpholin-4-yl]ethyl}-3-methanesulfonamido-1H-indazol-7-yl)-5-methyl-4-oxo-7-(1,4,4-trifluorocyclohexyl)-3H,4H-pyrido[2,3-d]pyrimidin-2-yl]-2-(3,5-difluorophenyl)ethyl]-2-[(2S,4R)-9-(difluoromethyl)-5,5-difluoro-7,8-diazatricyclo[4.3.0.0^2,^4]nona-1(6),8-dien-7-yl]acetamide] | > 20 nM | 0.019 nM |
| Cc1cc(C2(F)CCC(F)(F)CC2)nc2nc([C@H](Cc3cc(F)cc(F)c3)NC(=O)Cn3nc(C4CC4)c4c3C[C@@H]3C[C@H]43)n(-c3ccc(Cl)c4c(NS(C)(=O)=O)nn(CCN5C[C@@H](C)O[C@@H](C)C5)c34)c(=O)c12 (atropisomer, axis not shown; (P)) [Example 503, N-[(1S)-1-[(3P)-3-(4-chloro-1-{2-[(2R,6S)-2,6-dimethylmorpholin-4-yl]ethyl}-3-methanesulfonamido-1H-indazol-7-yl)-5-methyl-4-oxo-7-(1,4,4-trifluorocyclohexyl)-3H,4H-pyrido[2,3-d]pyrimidin-2-yl]-2-(3,5-difluorophenyl)ethyl]-2-[(2S,4S)-9-cyclopropyl-7,8-diazatricyclo[4.3.0.0^2,4]nona-1(6),8-dien-7-yl]acetamide] | > 20 nM | 0.008 nM |
| Cc1cc(C2(F)CCC(F)(F)CC2)nc2nc([C@H](Cc3cc(F)cc(F)c3)NC(=O)Cn3nc(C4CC4)c4c3C[C@@H]3C[C@H]43)n(-c3ccc(Cl)c4c(NS(C)(=O)=O)nn(CCN5CC(C)(C)OC(C)(C)C5)c34)c(=O)c12 (atropisomer, axis not shown; (P)) [Example 504, N-[(1S)-1-[(3P)-3-{4-chloro-3-methanesulfonamido-1-[2-(2,2,6,6-tetramethylmorpholin-4-yl)ethyl]-1H-indazol-7-yl}-5-methyl-4-oxo-7-(1,4,4-trifluorocyclohexyl)-3H,4H-pyrido[2,3-d]pyrimidin-2-yl]-2-(3,5-difluorophenyl)ethyl]-2-[(2S,4S)-9-cyclopropyl-7,8-diazatricyclo[4.3.0.0^2,^4]nona-1(6),8-dien-7-yl]acetamide] | > 20 nM | 0.049 nM |
| Cc1cc(C2(C)CCC(F)(F)CC2)nc2nc([C@H](Cc3cc(F)cc(F)c3)NC(=O)Cn3nc(C(F)F)c4c3C(F)(F)[C@@H]3C[C@H]43)n(-c3ccc(Cl)c4c(NS(C)(=O)=O)nn(CCN5C[C@@H](C)O[C@@H](C)C5)c34)c(=O)c12 (atropisomer, axis not shown; (P)) [Example 505, N-[(1S)-1-[(3P)-3-(4-chloro-1-{2-[(2R,6S)-2,6-dimethylmorpholin-4-yl]ethyl}-3-methanesulfonamido-1H-indazol-7-yl)-7-(4,4-difluoro-1-methylcyclohexyl)-5-methyl-4-oxo-3H,4H-pyrido[2,3-d]pyrimidin-2-yl]-2-(3,5-difluorophenyl)ethyl]-2-[(2S,4R)-9-(difluoromethyl)-5,5-difluoro-7,8-diazatricyclo[4.3.0.0^2,^4]nona-1(6),8-dien-7-yl]acetamide] | > 20 nM | 0.013 nM |
| Cc1cc(C2(C)CCC(F)(F)CC2)nc2nc([C@H](Cc3cc(F)cc(F)c3)NC(=O)Cn3nc(C4CC4)c4c3C[C@@H]3C[C@H]43)n(-c3ccc(Cl)c4c(NS(C)(=O)=O)nn(CCN5CC(C)(C)OC(C)(C)C5)c34)c(=O)c12 (atropisomer, axis not shown; (P)) [Example 506, N-[(1S)-1-[(3P)-3-{4-chloro-3-methanesulfonamido-1-[2-(2,2,6,6-tetramethylmorpholin-4-yl)ethyl]-1H-indazol-7-yl}-7-(4,4-difluoro-1-methylcyclohexyl)-5-methyl-4-oxo-3H,4H-pyrido[2,3-d]pyrimidin-2-yl]-2-(3,5-difluorophenyl)ethyl]-2-[(2S,4S)-9-cyclopropyl-7,8-diazatricyclo[4.3.0.0^2,^4]nona-1(6),8-dien-7-yl]acetamide] | > 20 nM | 0.027 nM |
